Structures are written as SMILES.

For test [1], the target named is Tyrosine-protein kinase CSK (Homo sapiens) (UniProt P41240). As to the kind of experiment: Selectivity interaction (Kinase panel (Z-LYTE Assay)) EUB0001632a CSK. Particulars: at 10 µM.
Test [2] deals with Serine/threonine-protein kinase 32B (Homo sapiens) (UniProt Q9NY57). Briefly: Selectivity interaction (KinomeScan (DiscoverX)) EUB0000695a STK32B. Particulars: at 100 nM.
Test [3] addresses T1, Activin receptor type-1 (Homo sapiens) (UniProt Q04771).
T1 sequence (whole entry): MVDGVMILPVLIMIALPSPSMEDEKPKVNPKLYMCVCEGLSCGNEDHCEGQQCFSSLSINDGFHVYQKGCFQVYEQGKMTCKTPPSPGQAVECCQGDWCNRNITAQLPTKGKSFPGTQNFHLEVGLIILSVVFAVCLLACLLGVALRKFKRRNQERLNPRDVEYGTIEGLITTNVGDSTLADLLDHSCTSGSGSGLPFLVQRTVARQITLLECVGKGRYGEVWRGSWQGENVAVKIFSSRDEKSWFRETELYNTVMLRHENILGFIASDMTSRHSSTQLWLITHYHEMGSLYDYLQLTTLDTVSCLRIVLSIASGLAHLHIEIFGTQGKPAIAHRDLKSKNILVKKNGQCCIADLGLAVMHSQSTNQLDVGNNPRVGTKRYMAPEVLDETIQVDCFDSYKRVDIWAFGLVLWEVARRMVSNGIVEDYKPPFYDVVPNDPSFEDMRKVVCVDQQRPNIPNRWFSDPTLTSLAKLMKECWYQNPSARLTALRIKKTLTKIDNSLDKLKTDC
As to the kind of experiment: Selectivity interaction (KinomeScan (DiscoverX)) EUB0000607a ACVR1. Particulars: at 10 µM.

Test [4] has as its target T2, Mitogen-activated protein kinase kinase kinase 6 (Homo sapiens) (UniProt O95382).
T2 sequence (whole entry): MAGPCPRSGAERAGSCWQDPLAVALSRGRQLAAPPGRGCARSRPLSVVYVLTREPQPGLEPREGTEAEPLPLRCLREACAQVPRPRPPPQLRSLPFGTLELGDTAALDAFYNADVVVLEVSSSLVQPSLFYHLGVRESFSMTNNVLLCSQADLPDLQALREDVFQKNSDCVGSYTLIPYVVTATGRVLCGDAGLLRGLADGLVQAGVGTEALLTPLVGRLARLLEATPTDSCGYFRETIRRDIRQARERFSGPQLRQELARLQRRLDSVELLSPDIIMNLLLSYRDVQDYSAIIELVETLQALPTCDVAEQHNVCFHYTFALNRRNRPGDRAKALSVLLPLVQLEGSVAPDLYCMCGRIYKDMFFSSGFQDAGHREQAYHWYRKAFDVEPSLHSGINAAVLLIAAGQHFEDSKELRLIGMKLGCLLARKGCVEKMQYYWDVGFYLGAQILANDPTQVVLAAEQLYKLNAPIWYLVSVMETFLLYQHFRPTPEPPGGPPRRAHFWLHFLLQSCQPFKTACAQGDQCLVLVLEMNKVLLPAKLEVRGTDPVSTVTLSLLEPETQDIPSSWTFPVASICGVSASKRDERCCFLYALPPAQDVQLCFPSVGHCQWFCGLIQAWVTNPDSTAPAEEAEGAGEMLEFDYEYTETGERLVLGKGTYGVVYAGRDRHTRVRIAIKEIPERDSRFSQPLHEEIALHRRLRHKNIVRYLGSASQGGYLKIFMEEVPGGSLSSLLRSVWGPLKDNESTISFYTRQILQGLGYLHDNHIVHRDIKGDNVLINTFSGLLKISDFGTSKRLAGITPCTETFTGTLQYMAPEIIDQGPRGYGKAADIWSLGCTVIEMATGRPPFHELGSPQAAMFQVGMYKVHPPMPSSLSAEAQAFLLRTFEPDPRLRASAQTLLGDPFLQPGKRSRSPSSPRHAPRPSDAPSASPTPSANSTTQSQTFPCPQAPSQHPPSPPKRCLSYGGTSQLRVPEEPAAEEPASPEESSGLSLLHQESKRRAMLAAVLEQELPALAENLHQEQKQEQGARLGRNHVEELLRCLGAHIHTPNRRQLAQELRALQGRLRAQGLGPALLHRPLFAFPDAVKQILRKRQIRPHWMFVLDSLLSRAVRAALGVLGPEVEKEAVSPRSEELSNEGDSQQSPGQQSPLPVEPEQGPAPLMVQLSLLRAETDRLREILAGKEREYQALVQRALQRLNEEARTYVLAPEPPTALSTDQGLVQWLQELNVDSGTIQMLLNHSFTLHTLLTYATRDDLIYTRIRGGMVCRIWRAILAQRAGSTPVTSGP
As to the kind of experiment: Selectivity interaction (ActivX KiNativ screen (kinase selectivity in THP-1 cell lysates)) EUB0000639a MAP3K6. Type of test: subcellular. To be noted: lysate, at 1 µM.

For test [5], the target named is T3, Histone-arginine methyltransferase CARM1 (Homo sapiens) (UniProt Q86X55).
T3 sequence (whole entry): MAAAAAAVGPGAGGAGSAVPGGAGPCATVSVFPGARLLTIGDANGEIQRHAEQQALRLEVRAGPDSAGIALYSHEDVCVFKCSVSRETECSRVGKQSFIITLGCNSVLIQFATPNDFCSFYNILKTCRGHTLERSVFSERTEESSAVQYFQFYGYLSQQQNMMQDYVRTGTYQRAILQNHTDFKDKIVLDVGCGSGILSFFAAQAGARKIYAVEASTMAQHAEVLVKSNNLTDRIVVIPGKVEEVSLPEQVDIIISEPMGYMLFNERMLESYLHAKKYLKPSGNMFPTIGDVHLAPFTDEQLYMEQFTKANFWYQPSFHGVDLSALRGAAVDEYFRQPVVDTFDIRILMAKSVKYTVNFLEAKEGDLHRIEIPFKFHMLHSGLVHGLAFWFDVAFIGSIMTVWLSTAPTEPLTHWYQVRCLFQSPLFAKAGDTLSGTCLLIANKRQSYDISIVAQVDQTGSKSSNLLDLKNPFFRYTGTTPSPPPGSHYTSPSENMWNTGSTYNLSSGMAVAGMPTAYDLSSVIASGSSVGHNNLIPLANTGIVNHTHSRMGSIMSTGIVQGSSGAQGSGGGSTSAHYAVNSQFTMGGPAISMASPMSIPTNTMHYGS
Particulars: KMS-12-BM, at 3 µM.

A further test deals with Insulin receptor (Homo sapiens, UniProt P06213). Briefly: Selectivity interaction (KinomeScan (DiscoverX)) EUB0000045b INSR.
Test [6] addresses Tyrosine-protein kinase CSK (Homo sapiens) (UniProt P41240). Briefly: Selectivity interaction (Kinase panel (literature)) EUB0001199aCl CSK. Particulars: at 1 µM.
Test [7] deals with MAP kinase-interacting serine/threonine-protein kinase 2 (Homo sapiens, UniProt Q9HBH9). As to the kind of experiment: Selectivity interaction (ProQinase) EUB0000171b MKNK2.
The target in test [8] is G protein-coupled receptor kinase 5 (Homo sapiens, UniProt P34947). Briefly: Selectivity interaction (ProQinase) EUB0000171b GRK5.
The target in test [9] is Cyclin-dependent kinase 8 (Homo sapiens, UniProt P49336). Briefly: Selectivity interaction (Ambit KINOMEscan and KiNATiv profiling in Jurkat cells) EUB0000090b CDK8. In kind it is cell-based. To be noted: at 1 µM.
Sequence of Cyclin-dependent kinase 8 (P49336 whole entry): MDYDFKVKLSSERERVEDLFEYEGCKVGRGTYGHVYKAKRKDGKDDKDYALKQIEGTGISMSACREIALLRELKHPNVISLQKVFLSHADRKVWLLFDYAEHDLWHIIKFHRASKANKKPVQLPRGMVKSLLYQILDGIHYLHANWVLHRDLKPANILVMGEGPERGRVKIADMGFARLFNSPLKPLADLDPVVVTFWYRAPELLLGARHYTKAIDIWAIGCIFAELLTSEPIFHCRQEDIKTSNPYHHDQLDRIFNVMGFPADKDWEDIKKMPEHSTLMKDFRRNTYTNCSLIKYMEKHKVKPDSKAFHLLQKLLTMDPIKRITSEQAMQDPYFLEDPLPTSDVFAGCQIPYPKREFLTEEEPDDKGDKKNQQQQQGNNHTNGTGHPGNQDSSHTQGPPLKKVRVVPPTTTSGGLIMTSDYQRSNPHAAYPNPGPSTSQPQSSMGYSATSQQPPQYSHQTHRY

Sequence of Tyrosine-protein kinase CSK (Homo sapiens) (P41240 2-450 limits assumed): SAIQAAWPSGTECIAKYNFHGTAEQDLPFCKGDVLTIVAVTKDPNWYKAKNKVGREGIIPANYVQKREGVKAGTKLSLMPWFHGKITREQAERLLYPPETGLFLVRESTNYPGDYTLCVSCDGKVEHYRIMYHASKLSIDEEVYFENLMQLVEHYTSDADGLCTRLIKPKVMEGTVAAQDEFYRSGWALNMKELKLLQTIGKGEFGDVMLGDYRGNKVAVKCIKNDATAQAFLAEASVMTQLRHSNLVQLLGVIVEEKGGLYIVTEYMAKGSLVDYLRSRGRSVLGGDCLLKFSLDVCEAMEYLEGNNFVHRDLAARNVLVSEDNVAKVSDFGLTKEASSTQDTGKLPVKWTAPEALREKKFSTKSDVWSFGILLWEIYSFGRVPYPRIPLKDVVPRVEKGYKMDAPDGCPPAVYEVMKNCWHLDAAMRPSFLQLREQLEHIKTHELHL
Sequence of MAP kinase-interacting serine/threonine-protein kinase 2 (Q9HBH9 whole entry, looked up): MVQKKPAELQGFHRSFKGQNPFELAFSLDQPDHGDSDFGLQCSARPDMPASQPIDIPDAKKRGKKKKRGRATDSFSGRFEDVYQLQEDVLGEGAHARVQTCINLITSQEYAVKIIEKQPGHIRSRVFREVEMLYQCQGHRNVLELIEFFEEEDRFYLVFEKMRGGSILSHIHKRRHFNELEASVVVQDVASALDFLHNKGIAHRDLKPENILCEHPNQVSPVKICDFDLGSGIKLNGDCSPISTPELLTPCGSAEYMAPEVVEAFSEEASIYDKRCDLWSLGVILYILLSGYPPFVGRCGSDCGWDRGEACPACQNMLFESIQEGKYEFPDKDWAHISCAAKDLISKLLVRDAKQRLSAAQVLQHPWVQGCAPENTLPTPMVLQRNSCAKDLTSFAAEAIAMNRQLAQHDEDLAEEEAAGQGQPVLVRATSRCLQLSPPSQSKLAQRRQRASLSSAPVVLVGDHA
Sequence of Insulin receptor (P06213 28-758 limits assumed): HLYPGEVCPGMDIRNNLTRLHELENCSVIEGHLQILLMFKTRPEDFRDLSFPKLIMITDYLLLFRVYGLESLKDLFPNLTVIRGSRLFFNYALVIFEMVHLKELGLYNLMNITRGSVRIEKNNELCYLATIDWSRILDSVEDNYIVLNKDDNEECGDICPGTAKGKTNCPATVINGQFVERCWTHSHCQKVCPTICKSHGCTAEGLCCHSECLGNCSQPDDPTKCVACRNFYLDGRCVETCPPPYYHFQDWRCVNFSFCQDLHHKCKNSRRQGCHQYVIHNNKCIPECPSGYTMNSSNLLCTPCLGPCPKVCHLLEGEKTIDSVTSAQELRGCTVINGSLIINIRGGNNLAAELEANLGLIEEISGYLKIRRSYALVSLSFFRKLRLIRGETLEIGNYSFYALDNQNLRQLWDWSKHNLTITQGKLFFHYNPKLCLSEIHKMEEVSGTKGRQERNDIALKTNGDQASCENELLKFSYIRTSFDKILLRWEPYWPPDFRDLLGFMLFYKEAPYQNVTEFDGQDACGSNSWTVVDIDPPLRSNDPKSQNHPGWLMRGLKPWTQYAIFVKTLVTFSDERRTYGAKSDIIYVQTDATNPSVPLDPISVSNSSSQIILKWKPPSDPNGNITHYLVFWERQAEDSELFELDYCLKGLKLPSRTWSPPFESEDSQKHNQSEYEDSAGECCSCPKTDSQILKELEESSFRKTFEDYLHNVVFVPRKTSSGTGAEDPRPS
Sequence of Insulin receptor (P06213 763-1382 limits assumed): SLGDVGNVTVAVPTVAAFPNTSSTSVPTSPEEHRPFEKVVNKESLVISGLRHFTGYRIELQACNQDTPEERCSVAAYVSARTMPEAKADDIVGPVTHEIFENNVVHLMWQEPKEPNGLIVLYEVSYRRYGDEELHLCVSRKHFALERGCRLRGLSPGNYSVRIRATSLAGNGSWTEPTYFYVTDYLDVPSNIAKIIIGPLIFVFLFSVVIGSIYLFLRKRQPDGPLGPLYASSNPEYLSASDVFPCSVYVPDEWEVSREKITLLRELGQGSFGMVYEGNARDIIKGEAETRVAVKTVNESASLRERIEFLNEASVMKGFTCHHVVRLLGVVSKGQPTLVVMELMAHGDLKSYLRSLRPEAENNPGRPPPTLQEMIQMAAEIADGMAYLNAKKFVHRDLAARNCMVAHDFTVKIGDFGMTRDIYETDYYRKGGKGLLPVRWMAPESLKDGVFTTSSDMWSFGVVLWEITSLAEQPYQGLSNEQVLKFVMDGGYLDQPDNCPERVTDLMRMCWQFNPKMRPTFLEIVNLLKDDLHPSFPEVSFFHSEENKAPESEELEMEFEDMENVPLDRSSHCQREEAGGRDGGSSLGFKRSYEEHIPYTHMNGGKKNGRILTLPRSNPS
Sequence of G protein-coupled receptor kinase 5 (P34947 whole entry, looked up): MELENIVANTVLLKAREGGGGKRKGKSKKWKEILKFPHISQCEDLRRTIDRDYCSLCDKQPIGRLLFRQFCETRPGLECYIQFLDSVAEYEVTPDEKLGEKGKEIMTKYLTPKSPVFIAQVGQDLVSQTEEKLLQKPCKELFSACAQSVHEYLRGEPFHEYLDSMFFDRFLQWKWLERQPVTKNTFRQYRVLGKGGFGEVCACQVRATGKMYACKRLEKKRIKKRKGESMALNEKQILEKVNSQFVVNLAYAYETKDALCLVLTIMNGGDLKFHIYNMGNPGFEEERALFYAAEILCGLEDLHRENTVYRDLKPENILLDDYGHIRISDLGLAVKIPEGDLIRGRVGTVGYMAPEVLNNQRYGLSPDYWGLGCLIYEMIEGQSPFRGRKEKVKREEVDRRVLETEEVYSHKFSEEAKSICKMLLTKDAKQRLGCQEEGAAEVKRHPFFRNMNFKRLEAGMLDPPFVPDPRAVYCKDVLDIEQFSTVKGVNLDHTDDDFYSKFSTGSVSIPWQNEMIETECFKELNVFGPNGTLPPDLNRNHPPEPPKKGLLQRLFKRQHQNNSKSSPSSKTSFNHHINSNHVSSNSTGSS
Sequence of Serine/threonine-protein kinase 32B (Homo sapiens) (Q9NY57 whole entry): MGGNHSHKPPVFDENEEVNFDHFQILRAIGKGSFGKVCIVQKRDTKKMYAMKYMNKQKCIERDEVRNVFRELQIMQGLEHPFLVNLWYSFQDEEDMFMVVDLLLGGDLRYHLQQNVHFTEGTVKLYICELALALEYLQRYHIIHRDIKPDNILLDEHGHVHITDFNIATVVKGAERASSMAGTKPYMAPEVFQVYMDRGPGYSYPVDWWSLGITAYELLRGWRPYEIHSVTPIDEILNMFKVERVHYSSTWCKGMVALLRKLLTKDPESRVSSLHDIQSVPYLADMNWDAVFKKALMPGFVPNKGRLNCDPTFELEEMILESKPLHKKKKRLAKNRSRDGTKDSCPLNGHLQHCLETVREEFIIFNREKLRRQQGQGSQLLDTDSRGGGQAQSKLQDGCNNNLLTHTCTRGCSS

In test [1], `Cn1cc(-n2cnc3c(NCc4nc5cc(Cl)c(Cl)cc5[nH]4)nc(N4CCOCC4)nc32)cn1` showed a % of control of 10.7%. In [2], `Cc1cc(F)c(C(=O)Nc2cccc(-c3nncn3C(C)C)n2)cc1-n1cnc(C2CC2)c1` yielded a % of control of 93%. In turn, `CNC(=O)Nc1ccc(-c2nc(N3CC4CCC(C3)O4)c3cnn(C4CCC5(CC4)OCCO5)c3n2)cc1` returned a % of control in test [3] of 90%. For the compound `CC[C@@H]1[C@H](F)C(=O)N[C@@H]1COc1nccc2cc(C(N)=O)c(OC)cc12` [ZIMLOVISERTIB], the % of inhibition in test [4] is -16.4%. Consider `CNCCN1CCC(c2cc(CN(C)C(=O)c3cccc(Oc4ccccc4)c3)ccn2)CC1`, for which, in test [5], the % of growth rate was -8.2%. For the compound `C=CC(=O)Nc1cc(-n2c(=O)ccc3cnc4ccc(-c5ccc(NS(C)(=O)=O)cc5)cc4c32)ccc1C`, the % of control at Insulin receptor (at 1 µM) turned out to be 93%; on Insulin receptor (at 10 µM), 100%. With `CN1Cc2nccc(-c3cn(C)nc3-c3ccc(F)cc3)c2C1=O`, in [6], the % of inhibition was -3%. With `C=CC(=O)Nc1cccc(C(=O)Nc2ccc(Nc3cc(-c4[nH]c(SC)nc4C)ccn3)cc2)c1`, the % of control is 80% in test [7] (at 1 µM), 31% in test [7] (at 5 µM), 97% in test [8] (at 1 µM) and 94% in [8] (at 5 µM).

`CN(C)C/C=C/C(=O)Nc1ccc(C(=O)N2CCCC(Nc3ncc(Cl)c(-c4c[nH]c5ccccc45)n3)C2)cc1` (stereo not drawn) came in with a % of control in test [9] of 100%.

The values above are taken from ChEMBL document CHEMBL5465560, “Selectivity Literature for EUbOPEN Chemogenomic Library” (2024).
